SMILES strings stand for the structures. “Also recorded” adds a separate entry of the source.

In experiment [1] the target is T1, rat homomeric P2X2 receptors (Rattus norvegicus, UniProt P49653).
T1 construct: expressed in transfected cells; host or cells: HEK 293
T1 sequence (P49653 1-472): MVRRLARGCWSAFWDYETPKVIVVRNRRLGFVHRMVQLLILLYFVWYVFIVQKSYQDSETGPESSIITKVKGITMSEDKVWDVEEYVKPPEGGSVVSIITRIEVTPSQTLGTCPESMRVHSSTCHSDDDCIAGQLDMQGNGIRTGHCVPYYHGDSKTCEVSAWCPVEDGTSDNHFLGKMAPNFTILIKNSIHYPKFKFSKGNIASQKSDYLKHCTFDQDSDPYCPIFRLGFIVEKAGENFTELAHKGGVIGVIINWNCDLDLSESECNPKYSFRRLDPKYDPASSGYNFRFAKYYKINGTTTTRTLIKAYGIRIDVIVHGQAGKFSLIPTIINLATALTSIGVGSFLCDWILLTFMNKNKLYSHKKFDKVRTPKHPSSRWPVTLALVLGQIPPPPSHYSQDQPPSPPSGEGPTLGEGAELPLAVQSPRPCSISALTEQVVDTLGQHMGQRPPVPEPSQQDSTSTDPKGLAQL
Kind of experiment: Whole-cell patch clamp on HEK cells expressing rat homomeric P2X2 receptors. Type of experiment: cell-based. The following applies: 1 μM; 10 μM ATP. On the procedure:
FIG. 4. […] A. Example traces of responses induced by 10 μM ATP applied for 2 s every 2 min to HEK cells expressing rat homomeric P2X2 receptors in the presence and absence of 1 μM AppNHppA. B. Comparison of currents induced by the full agonist of P2X2 receptors, ATP, in the presence of 1 μM AppNHppA (right) and absence (left). C. The time course of the current in the presence and absence of 1 μM AppNHppA. D. Comparison of currents induced by the full agonist of rat homomeric P2X4 and P2X7 receptors, ATP, in the presence of 1 μM AppNHppA (right) and absence (left). Experiments were performed as in FIG. 2.
(§1) Trigeminal, nodose, DRG neurons or HEK cells were recorded in the whole-cell configuration while being continuously superfused (at 2 mL/min) with control solution containing (in mM): 152 NaCl, 5 KCl, 1 MgCl2, 2 CaCl2, 10 glucose, and 10 HEPES; pH was adjusted to 7.4 with NaOH and osmolarity was adjusted to 320 mOsM with glucose. […] Responses to selective P2X3 receptor agonist α,β-methylene-ATP (α,β-meATP; resistant to ectoATPase hydrolysis, Sigma-Aldrich) were measured using an EPC-9 amplifier and HEKA Patch Master software (HEKA Electronik, Germany). Cells were voltage-clamped at −70 mV. In most cells, series resistance was compensated by 80%. […]

The target in experiment [2] is T2, native P2X3 receptors, dorsal root ganglia (DRG) neurons (Rattus norvegicus, UniProt P49654).
T2 construct: Modulation of Native P2X3 Receptors in Rat Cultured Sensory Neurons; endogenous in cells; host or cells: primary cultured rat trigeminal ganglion and dorsal root ganglion neurons
T2 sequence (P49654 1-397): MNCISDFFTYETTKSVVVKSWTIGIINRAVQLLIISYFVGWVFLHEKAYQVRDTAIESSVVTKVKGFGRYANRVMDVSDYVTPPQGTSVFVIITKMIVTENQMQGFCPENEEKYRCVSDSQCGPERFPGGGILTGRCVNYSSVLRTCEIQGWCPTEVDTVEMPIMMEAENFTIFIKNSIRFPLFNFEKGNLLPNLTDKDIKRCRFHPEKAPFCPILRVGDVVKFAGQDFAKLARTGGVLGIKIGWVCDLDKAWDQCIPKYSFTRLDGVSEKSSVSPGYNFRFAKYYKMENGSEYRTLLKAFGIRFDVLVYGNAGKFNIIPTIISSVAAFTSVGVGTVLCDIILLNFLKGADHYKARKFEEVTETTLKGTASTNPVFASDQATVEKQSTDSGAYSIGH
Kind of experiment: α,β-meATP-induced currents in cultured dorsal root ganglia neurons. Type of experiment: cell-based. The following applies: DRG neuron, read-out: inhibition (suppression) of the peak current. On the procedure: (§2) Rat trigeminal (TG), nodose (NG) or dorsal root ganglion (DRG) neurons in culture were prepared as described previously (Sokolova et al., 2001; Simonetti et al., 2006). Neurons were plated on poly-L-lysine (0.2 mg/mL)-coated Petri dishes and cultured for 1 to 2 days under an atmosphere containing 5% CO2. Cells were used within 2 days of plating when they lacked processes. HEK293T cells were prepared as reported previously (Fabbretti et al., 2004; Sokolova et al., 2004) and transfected with rat full-length P2X3 cDNA subcloned into pIRES2-EGFP (Clontech, Mountain View, Calif., USA).
as §1
(§3) The peak amplitudes of the responses were measured using HEKA Patch Master software. […]

The test system of experiment [3] is native P2X3 receptors, dorsal root ganglia (DRG) neurons. Described as above. Type of experiment: cell-based, rat. The following applies: 1 μM, DRG neurons. On the procedure: as §2, §1, §3

Broadly, the inhibition is the relative decrease from the control value, in per cent. `Nc1ncnc2c1ncn2[C@@H]1O[C@H](COP(=O)(O)OP(=O)(O)NP(=O)(O)OP(=O)(O)OC[C@H]2O[C@@H](n3cnc4c(N)ncnc43)C(O)C2O)C(O)C1O` (stereo in doubt) [AppNHppA]: the “effect on P2X2 receptor-mediated currents” value in experiment [1] is on record as “not observed to produce any effects; also recorded: non-inhibitory effect”. In addition, the inhibition at 1 µM in experiment [2] was found to be 79.2 ± 5.6%. Also, the “inhibition of sustained residual component” value in experiment [3] was 18±6%.

The values above are taken from patent US20150119352A1, “DINUCELOSIDE POLYPHOSPHATES FOR THE TREATMENT OF PAIN” (GlobalAcorn Ltd., priority 2012, published 2015).
